According to PubChem BioAssay AID272 (DTP/NCI, 2004):
Several values for one entry are separate records, joined by “and”; a condition that tells them apart may be missing. Equal entries are not always repeated. Results filed as inconclusive are left out.

System: Lewis lung carcinoma i.m., BDF1 mice, T/C %
Assay: NCI In Vivo Anticancer Drug Screen. Data for tumor model Lewis Lung Carcinoma (intramuscular) in B6D2F1 (BDF1) mice
Conditions: schedule: Q01DX011 (ip)
Method in brief: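 Value is the ratio of a treated-group measurement (T) to the matching vehicle-control measurement (C), using either survival or tumour size in mice bearing transplanted tumours.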

**Q.** What does the source list for `COc1c2c([n+](C)c3c(OC)cccc13)OC(C(C)C)C2` (stereo unspecified)?
**A.** T/C (endpoint: mean tumor weight (est.), dose: 0.25 mg/kg/injection, vehicle: saline, higher = larger tumour): 85 % of control; T/C (endpoint: mean tumor weight (est.), dose: 0.5 mg/kg/injection, vehicle: saline, higher = larger tumour): 82 % of control; T/C (endpoint: median survival time, dose: 0.25 mg/kg/injection, vehicle: saline, higher = longer survival): 90 % of control; T/C (endpoint: median survival time, dose: 0.5 mg/kg/injection, vehicle: saline, higher = longer survival): 101 % of control

**Q.** How did the T/C (endpoint: mean tumor weight, dose: 0.19 mg/kg/injection, vehicle: saline, higher = larger tumour) turn out when `Nc1ncn(C2OC(CO)C(O)C2O)c(=O)n1` (stereo unspecified) was run?
**A.** 105 % of control

**Q.** And the T/C (endpoint: mean tumor weight, dose: 0.38 mg/kg/injection, vehicle: saline, higher = larger tumour)?
**A.** 82 % of control

**Q.** What about the T/C (endpoint: median survival time, dose: 0.1 mg/kg/injection, vehicle: saline, higher = longer survival) of the same molecule?
**A.** 93 % of control

**Q.** And the T/C (endpoint: median survival time, dose: 0.19 mg/kg/injection, vehicle: saline, higher = longer survival)?
**A.** 104 % of control

**Q.** What about the T/C (endpoint: median survival time, dose: 0.2 mg/kg/injection, vehicle: saline, higher = longer survival) of the same molecule?
**A.** 106 % of control and 109 % of control

**Q.** And the T/C (endpoint: median survival time, dose: 0.38 mg/kg/injection, vehicle: saline, higher = longer survival)?
**A.** 90 % of control and 110 % of control

**Q.** And the T/C (endpoint: median survival time, dose: 0.4 mg/kg/injection, vehicle: saline, higher = longer survival)?
**A.** 105 % of control and 124 % of control

**Q.** And the T/C (endpoint: median survival time, dose: 0.75 mg/kg/injection, vehicle: saline, higher = longer survival)?
**A.** 112 % of control

**Q.** What about the T/C (endpoint: median survival time, dose: 0.8 mg/kg/injection, vehicle: saline, higher = longer survival) of the same molecule?
**A.** 106 % of control

**Q.** What about the T/C (endpoint: median survival time, dose: 1.5 mg/kg/injection, vehicle: saline, higher = longer survival) of the same molecule?
**A.** 108 % of control

**Q.** Which results are given for `NC(C=O)C(O)C(O)C(O)CO` (stereo unspecified)?
**A.** T/C (endpoint: mean tumor weight (est.), dose: 750.0 mg/kg/injection, vehicle: saline, higher = larger tumour): 77 % of control; T/C (endpoint: mean tumor weight (est.), dose: 1500.0 mg/kg/injection, vehicle: saline, higher = larger tumour): 93 % of control; T/C (endpoint: mean tumor weight (est.), dose: 3000.0 mg/kg/injection, vehicle: saline, higher = larger tumour): 89 % of control; T/C (endpoint: median survival time, dose: 1500.0 mg/kg/injection, vehicle: saline, higher = longer survival): 104 % of control; T/C (endpoint: median survival time, dose: 3000.0 mg/kg/injection, vehicle: saline, higher = longer survival): 104 % of control

**Q.** What does the source list for `CC1=C2C(=C[C@@](C)(CO)[C@@H]2O)C(=O)[C@](C)(O)C12CC2`?
**A.** T/C (endpoint: mean tumor weight, dose: 0.1 mg/kg/injection, vehicle: other, higher = larger tumour): 89 % of control; T/C (endpoint: mean tumor weight, dose: 0.2 mg/kg/injection, vehicle: other, higher = larger tumour): 65 % of control; T/C (endpoint: mean tumor weight, dose: 0.4 mg/kg/injection, vehicle: other, higher = larger tumour): 58 % of control

**Q.** What does the source list for `Cc1cc(C)c(C(=O)CC(=O)c2cccnc2)c(C)c1`?
**A.** T/C (endpoint: mean tumor weight (est.), dose: 8.75 mg/kg/injection, vehicle: other, higher = larger tumour): 69 % of control; T/C (endpoint: mean tumor weight (est.), dose: 17.5 mg/kg/injection, vehicle: other, higher = larger tumour): 70 % of control; T/C (endpoint: mean tumor weight (est.), dose: 35.0 mg/kg/injection, vehicle: other, higher = larger tumour): 93 % of control; T/C (endpoint: mean tumor weight (est.), dose: 70.0 mg/kg/injection, vehicle: other, higher = larger tumour): 83 % of control; T/C (endpoint: median survival time, dose: 8.75 mg/kg/injection, vehicle: other, higher = longer survival): 92 % of control; T/C (endpoint: median survival time, dose: 17.5 mg/kg/injection, vehicle: other, higher = longer survival): 106 % of control; T/C (endpoint: median survival time, dose: 35.0 mg/kg/injection, vehicle: other, higher = longer survival): 106 % of control; T/C (endpoint: median survival time, dose: 70.0 mg/kg/injection, vehicle: other, higher = longer survival): 94 % of control

**Q.** Which results are given for `Nc1cc(I)c2cccnc2c1O`?
**A.** T/C (endpoint: mean tumor weight (est.), dose: 6.25 mg/kg/injection, vehicle: saline with Tween-80, higher = larger tumour): 87 % of control; T/C (endpoint: mean tumor weight (est.), dose: 12.5 mg/kg/injection, vehicle: saline with Tween-80, higher = larger tumour): 97 % of control; T/C (endpoint: mean tumor weight (est.), dose: 25.0 mg/kg/injection, vehicle: saline with Tween-80, higher = larger tumour): 87 % of control; T/C (endpoint: median survival time, dose: 6.25 mg/kg/injection, vehicle: saline with Tween-80, higher = longer survival): 114 % of control; T/C (endpoint: median survival time, dose: 12.5 mg/kg/injection, vehicle: saline with Tween-80, higher = longer survival): 108 % of control; T/C (endpoint: median survival time, dose: 25.0 mg/kg/injection, vehicle: saline with Tween-80, higher = longer survival): 104 % of control

**Q.** What does the source list for `CCc1ccc(/C=C/c2ccc(O)c3ncccc23)[n+](C)c1`?
**A.** T/C (endpoint: mean tumor weight, dose: 4.0 mg/kg/injection, vehicle: saline, higher = larger tumour): 53 % of control; T/C (endpoint: mean tumor weight, dose: 8.0 mg/kg/injection, vehicle: saline, higher = larger tumour): 61 % of control; T/C (endpoint: mean tumor weight, dose: 16.0 mg/kg/injection, vehicle: saline, higher = larger tumour): 46 % of control; T/C (endpoint: median survival time, dose: 4.0 mg/kg/injection, vehicle: saline, higher = longer survival): 97 % of control; T/C (endpoint: median survival time, dose: 8.0 mg/kg/injection, vehicle: saline, higher = longer survival): 116 % of control
